The RepoRT retention time repository (doi:10.1021/acs.analchem.1c00972)

Tests used:
[1] = RP, Waters ACQUITY UPLC BEH C18, 100 × 1 mm, 1.7 µm, 50 °C, 0.3 mL/min, estimated dead time 0.17 min; A: water + 10 mM ammonium bicarbonate; B: 10% water + 90% methanol + 10 mM ammonium bicarbonate; gradient (min/%B) 0/0 15/100 21/100 22/0 30/0; settings: stereoisomer not certain
[2] = RP, Waters ACQUITY UPLC BEH C18, 100 × 1 mm, 1.7 µm, 50 °C, 0.3 mL/min, estimated dead time 0.17 min; A: water + 0.1% formic acid + 20 mM ammonium formate; B: methanol + 0.1% formic acid + 20 mM ammonium formate; gradient (min/%B) 0/0 15/100 21/100 22/0 30/0; settings: stereoisomer not certain

Row | Structure (SMILES) | LC retention time [1] [min] | LC retention time [2] [min]
1 | CC(Cl)COP(=O)(OCC(C)Cl)OCC(C)Cl (stereo not given) [Tris(2-chloropropyl) phosphate] | 14.6 | 14.4
2 | COP(=O)(OC)OC(Br)C(Cl)(Cl)Br (stereo not given) [Naled] | 13.6 | 13.3
3 | NC(=O)N1c2ccccc2C=Cc2cc(O)ccc21 [2-Hydroxycarbamazepine] | 10.8 | 10.7
4 | CNC(=O)Oc1cc(C)c(S(C)(=O)=O)c(C)c1 [Methiocarb sulfone] | 9.75 | 9.58
5 | CSc1nc2ccccc2s1 [2-(Methylthio)benzothiazole] | 14.3 | 14
6 | CCOC(=O)C1=NOC(c2ccccc2)(c2ccccc2)C1 [Isoxadifen-ethyl] | 15.7 | 15.4
7 | COP(=O)(OC)SCn1c(=O)oc2cc(Cl)cnc21 [Azamethiphos] | 11.6 | 11.4
8 | CCc1cccc(C)c1N(C(=O)CS(=O)(=O)O)C(C)C(=O)O (stereo not given) | 8.62 | 11
9 | CC1COc2c(N3CCN(C)CC3)c(F)cc3c(=O)c(C(=O)O)cn1c23 (stereo not given) [Ofloxacin] | 9.6 | 8.04
10 | CCn1cc(C(=O)O)c(=O)c2cc(F)c(N3CCNCC3)cc21 [norfloxacin] | 7.5 | 8.16
11 | CCC(C)C1OC2(C=CC1C)CC1CC(CC=C(C)C(OC3CC(OC)C(OC4CC(OC)C(NC(C)=O)C(C)O4)C(C)O3)C(C)C=CC=C3COC4C(O)C(C)=CC(C(=O)O1)C34O)O2 (stereo not given) [Eprinomectin B1a] | 18.3 | 17.9
12 | COc1cc2nc(N(C)CCCNC(=O)C3CCCO3)nc(N)c2cc1OC (stereo not given) [Alfuzosin] | 12.3 | 9.73
13 | COP(=S)(OC)Oc1ccc(Sc2ccc(OP(=S)(OC)OC)cc2)cc1 [Temephos] | 17.2 | 16.8
14 | CC(C)(C)NC(=O)C1CCC2C3CCC4NC(=O)C=CC4(C)C3CCC12C (stereo not given) [Finasteride] | 14.9 | 14.6
15 | NC(=Nc1ccccc1)Nc1ccccc1 [1,3-Diphenylguanidine] | 10 | 8.76
16 | CC1=C2C(=O)C3C(CC=C4CC(O)CCC43C)C2CCC12OC1CC(C)CNC1C2C (stereo not given) [Jervine] | 15.2 | 11.7
17 | CC(C)c1nc(CN(C)C(=O)NC(C(=O)NC(Cc2ccccc2)CC(O)C(Cc2ccccc2)NC(=O)OCc2cncs2)C(C)C)cs1 (stereo not given) [Ritonavir] | 16.3 | 15.9
18 | CC=C1CC2(CO)OC2(C)C(=O)OCC2=CCN3CCC(OC1=O)C23 (stereo not given) [Erucifoline] | 10.2 | 6
19 | Cc1cccc2n[nH]nc12 [Tolyltriazole] | 14.6 | 9.9
20 | CCCCCCCCCCOC(=O)c1ccccc1C(=O)OCCCCCCCCCC [Didecylphthalat] | 21.4 | 20.1
21 | CC1CC2(OC2C)C(=O)OC2CCN3CC=C(COC(=O)C1(C)O)C23 (stereo not given) [Jacobine] | 10.1 | 6.52
22 | Cc1cc(C)c(C2=C(OC(=O)CC(C)(C)C)C3(CCCC3)OC2=O)c(C)c1 [Spiromesifen] | 17.7 | 17.3

Row | Structure (SMILES) | LC retention time [1] [min] | LC retention time [2] [min]
23 | CC12C=CC3=C4CCC(=O)C=C4CCC3C1CCC2O (stereo not given) [Trenbolone] | 13.6 | 13.4
24 | CC=C(C)C(=O)OC1CC[N+]2([O-])CC=C(COC(=O)C(O)(C(C)OC)C(C)(C)O)C12 (stereo not given) [Lasiocarpine N-oxide] | 11.7 | 11
25 | Cc1ccc(S(=O)(=O)O)c(C)c1 [m-Xylene-4-sulfonic acid] | 7.83 | 7.92
26 | Nc1ncnc2nc[nH]c12 [Adenine] | 2.55 | 5.28
27 | CNC1(c2ccccc2Cl)CCCCC1=O (stereo not given) [Ketamine] | 13.5 | 8.96
28 | CC(CCC(=O)O)C1CCC2C3C(=O)CC4CC(O)CCC4(C)C3CCC12C (stereo not given) [7-Oxolithocholic acid] | 14.3 | 19.2
29 | CCCCOC(=O)N(C)SN(C)C(=O)Oc1cccc2c1OC(C)(C)C2 [Furathiocarb] | 17.1 | 16.7
30 | C=C1C(=O)OC2C1CCC(C)=CCCC1(C)OC21 (stereo not given) [Parthenolid] | 13.1 | 12.8
31 | CC(C)CN(CC(O)C(Cc1ccccc1)NC(=O)OC1COC2OCCC12)S(=O)(=O)c1ccc(N)cc1 (stereo not given) [Darunavir] | 13.4 | 13.1
32 | C=C1C(=O)OC2CC[N+]3([O-])CC=C(COC(=O)C(C)(O)C(C)C1C)C23 (stereo not given) [Senecivernine N-oxide] | 9.7 | 8.69
33 | CCc1cccc(C)c1N1C(=O)COCC1C (stereo not given) [Metolachlor-morpholinone] | 12.9 | 12.6
34 | O=C(OCc1ccccc1)c1ccccc1C(=O)OCc1ccccc1 [Dibenzylphthalate] | 16.7 | 16.3
35 | CCC(C)OC(=O)N1CCCCC1CCO (stereo not given) [Icaridin] | 14 | 13.7
36 | CCOC(=O)NCCOc1ccc(Oc2ccccc2)cc1 [Fenoxycarb] | 15.6 | 15.3
37 | C=C1C(=O)OC2C=C(C)CCC=C(C)CCC12 (single isomer, unassigned; (+)) [(+)-Costunolide] | 15.3 | 15
38 | CC(=O)OC1(C(C)=O)CCC2C3CC(C)C4=CC(=O)CCC4(C)C3CCC21C (stereo not given) [Medroxyprogesteroneacetate] | 15.8 | 15.4
39 | O=C1NC(=O)C2CC=CCC12 (stereo not given) [Tetrahydrophthalimide] | 5.35 | 5.38
40 | CC(CN(C)C)CN1c2ccccc2CCc2ccccc21 (stereo not given) [Trimipramine] | 17.8 | 12.9
41 | CNC(=O)Oc1ccccc1C(C)C [Isoprocarb] | 13.1 | 12.9
42 | COc1ccc(C(=O)c2ccccc2)c(O)c1 [Benzophenone-3] | 15.3 | 15
43 | CCC(C)C1OC2(CCC1C)CC1CC(CC=C(C)C(OC3CC(OC)C(OC4CC(OC)C(O)C(C)O4)C(C)O3)C(C)C=CC=C3COC4C(O)C(C)=CC(C(=O)O1)C34O)O2 (stereo not given) [Ivermectin B1a] | 19.3 | 18.8
44 | Oc1ccc(C(F)(F)F)cc1 [4-Trifluoromethylphenol] | 12.6 | 12.8

Row | Structure (SMILES) | LC retention time [1] [min] | LC retention time [2] [min]
45 | CNc1cnn(-c2cccc(C(F)(F)F)c2)c(=O)c1Cl [Norflurazon] | 13.5 | 13.3
46 | CCCN(CCC)CCc1cccc2c1CC(=O)N2 [Ropinirole] | 15.2 | 8.08
47 | COC(=O)Nc1nc2ccc(C(=O)c3ccccc3)cc2[nH]1 [Mebendazole] | 12.9 | 12.5
48 | Cc1nc2ccccc2s1 [2-Methylbenzothiazole] | 12.6 | 12.3
49 | CCCCCCCCCCS(=O)(=O)O [1-Decanesulfonic acid] | 14.7 | 15.1
50 | CC1CCN(CCCC(=O)c2ccc(F)cc2)CC1 [Melperon] | 15.4 | 10
51 | CC(=O)OC1C(C)OC(n2cc(F)c(N)nc2=O)C1OC(C)=O (stereo not given) [2',3'-Di-O-acetyl-5'-deoxy-5-fluorocytidine] | 9.61 | 9.43
52 | CCOC(=O)c1ccc(N)cc1 [Benzocain] | 10.8 | 10.5
53 | Cc1cccc(C)c1NC(=O)C1CCCCN1C (stereo not given) [Mepivacaine] | 13.1 | 8.36
54 | CC(=O)c1cc(C(C)(C)C)cc2c1CCC2(C)C [Celestolide] | 17.9 | 17.5
55 | CCNc1nc(NCC)[nH]c(=O)n1 [Simazine 2-Hydroxy] | 9.04 | 7.39
56 | COc1ccccc1OCC(O)COC(N)=O (stereo not given) [Methocarbamol] | 9.71 | 9.52
57 | O=C1Nc2ccc(Cl)cc2C(C#CC2CC2)(C(F)(F)F)O1 (stereo not given) [Efavirenz] | 15.8 | 15.5
58 | CCC1COC(Cn2cncn2)(c2ccc(Cl)cc2Cl)O1 (stereo not given) [Etaconazole] | 15.4 | 15
59 | CCCCNc1ccc(C(=O)OCCN(C)C)cc1 [Tetracain] | 15.2 | 11.4
60 | CC(=O)Nc1cc(Cl)ccc1C [5'-CHLORO-2'-METHYLACETANILIDE] | 11.2 | 11
61 | CCCCCC(C)OC(=O)COc1ccc(Cl)c2cccnc12 (stereo not given) [Cloquintocet-mexyl] | 17.3 | 16.9
62 | CCOC(=O)CC(O)(CC(=O)OCC)C(=O)OCC [Triethylcitrate] | 12.1 | 11.9
63 | CCCCCCCCCC[N+](C)(C)[O-] [N,N-Dimethyldecylamine-N-oxide] | 15.2 | 13.8
64 | CC=C1CC2(CO)OC2(C)C(=O)OCC2=CC[N+]3([O-])CCC(OC1=O)C23 (stereo not given) [Erucifoline N-oxide] | 6.82 | 6.51
65 | O=C1CCCC2C3CCCN4CCCC(CN12)C34 (stereo not given) [Matrine] | 13 | 5.2
